# According to patent US20030083483A1, “Molecular interaction sites of vimentin RNA and methods of modulating the same” (priority 1999, published 2003):
# What was measured:
# [1] = biological target: luciferase mRNA containing the TAR RNA structure in the 5′-UTR; assay: wheat germ lysate translation of luciferase mRNA with TAR in the 5′-UTR; format: biochemical, HIV; conditions: read-out: concentration reducing translation by 50%
# Excerpt: It is believed that stabilization of mRNA structures near the 5′-cap also could be effected by specific “small” molecules, and that such binding would reduce the translational efficiency of the mRNA. To test this hypothesis, a plasmid was constructed containing the luciferase message behind a 5′-UTR containing a 27-mer RNA construct of the HIV TAR stem-loop bulge whose structure had been determined by NMR. The resulting mRNA could be expressed and capped in a wheat germ lysate translation system supplemented with T7 polymerase following addition of m^7G to the lysate. Insertion of a 9-base leader before the TAR structure (HIVluc+9) enhanced the translational efficiency, presumably by allowing the pre-initiation complex to form. The helicase activity associated with the pre-initiation complex can transiently melt out the TAR RNA structure, and the message is translated.
# luciferase mRNA = assay: wheat germ lysate translation of luciferase mRNA; format: biochemical; conditions: mRNA without TAR structure
# Excerpt: It is believed that stabilization of mRNA structures near the 5′-cap also could be effected by specific “small” molecules, and that such binding would reduce the translational efficiency of the mRNA. To test this hypothesis, a plasmid was constructed containing the luciferase message behind a 5′-UTR containing a 27-mer RNA construct of the HIV TAR stem-loop bulge whose structure had been determined by NMR.
# [2] = test system: TAR RNA interaction with tat peptide; assay: disruption of TAR RNA interaction with tat peptide; format: binding, HIV-1
# E. coli = assay: high throughput screening assay for antibacterial activity; format: cell-based; conditions: Escherichia coli; against E. coli; crude compounds, identical activity with analytically pure material; read-out: minimum inhibitory concentrations (MIC's)
# Excerpt: This activity was verified by manual solution synthesis of analytically pure material as described in Example 6 above, which had identical activity.
# [3] = test system: 27-mer model RNA sequence of the 16S A-site; assay: MASS mass spectrometry binding assay with 16S A-site 27-mer RNA; design: species or system prokaryotic; conditions: for complexes detected with the 16S A site 27mer RNA: ESI-FTICR, mixture of five aminoglycosides, 16S and 18S targets simultaneously
# Procedure: The compounds are screened for binding affinity using MASS or conventional high-throughput functional screens. The best scoring compounds from docking a 256-member library against the 16S A-site ribosomal RNA structure are shown in the table 5 below. The MASS assay was performed with the 27-mer model RNA sequence of the 16S A-site whose NMR structure has been determined. The transcription/translation assay was based on expression of a luciferase plasmid.
# A preferred first step of MASS screening involves mixing the RNA target (or targets) with a combinatorial library of ligands designed to bind to a specific site on the target molecule(s). Specific noncovalent complexes formed in solution between the target(s) and any library members are transferred into the gas phase and ionized by ESI. As described herein, from the measured mass difference between the complex and the free target, the identity of the binding ligand can be determined. The dissociation constant of the complex can be determined in two ways: if a ligand with a known binding affinity for the target is available, a relative Kd can be measured by using the known ligand as an internal control and measuring the abundance of the unknown complex to the abundance of the control, alternatively, if no internal control is available, Kd's can be determined by making a series of measurements at different ligand concentrations and deriving a Kd value from the “titration” curve.
# In a direct determination of solution phase dissociation constants (Kd's) by mass spectrometry, ESI-MS measurements of a solution containing a fixed concentration of RNA at different concentrations of ligand were obtained. By measuring the ratio of bound:unbound RNA at varying ligand concentrations, the Kd was determined by 1/slope of the “titration curve”. The MS derived value of 110 nM is in good agreement with previously reported literature value of 200 nM.
# All mass spectrometry experiments were performed using an Apex II 70e electrospray ionization Fourier transform ion cyclotron resonance mass spectrometer (Bruker Daltonics, Billerica) employing an actively shielded 7 tesla superconducting magnet. RNA solutions were prepared in 50 mM NH4OAc (pH 7), mixed 1:1 v:v with isopropanol to aid desolvation, and infused at a rate of […] using a syringe pump. Ions were formed in a modified electrospray source (Analytica, Branford) employing an off axis, grounded electrospray probe positioned ca. 1.5 cm from the metalized terminus of the glass desolvation capillary biased at 5000 V. A counter-current flow of dry […] gas heated to 225C was employed to assist in the desolvation process. Ions were accumulated in an external ion reservoir comprised of an RF-only hexapole, a skimmer cone, and an auxiliary electrode for 1000 ms prior to transfer into the trapped ion cell for mass analysis. Each spectrum was the result of the coaddition of 16 transients comprised of […] acquired over a 90,909 kHz bandwidth resulting in a 700 ms detection interval. All aspects of pulse sequence control, data acquisition, and post acquisition processing were performed using a Bruker Daltonics datastation running XMASS version 4.0 on a Silicon Graphics (San Jose, Calif.) R5000 computer.
# Mass spectrometry experiments were performed in order to detect complex formation between a library containing five aminoglycosides (Sisomicin (Sis), Tobramycin (Tob), Bekanomycin (Bek), Paromomycin (PM), and Livodomycin (LV)) and two RNA targets simultaneously. Signals from the (M-5H+)^5− charge states of free 16S and 18S RNAs are detected at m/z 1801.515 and 1868.338, respectively. The mass spectrometric assay reproduces the known solution binding properties of aminoglycosides to the 16S A site model and an 18S A site model with a neutral mass linker. Consistent with the higher binding affinity of theses aminoglycosides for the 16S A-site relative to the 18S A-site, aminoglycoside complexes are observed only with the 16S rRNA target. […]
# 18S A site model = assay: ESI-FTICR mass spectrometric complex detection with 18S A-site model RNA; format: binding, eukaryotic; conditions: mixture of five aminoglycosides, 16S and 18S targets simultaneously
# Procedure: Paromomycin, lividomycin (MW=761.354 Da), sisomicin (MW=447.269 Da), tobramycin (MW=467.2591 Da), and bekanamycin (MW=483.254 Da) were obtained from Sigma (St. Louis, Mo.) and ICN (Costa Mesa, Calif.) and were dissolved to generate 10 mM stock solutions. 2′ methoxy analogs of RNA constructs representing the prokaryotic (16S) rRNA and eukaryotic (18S) rRNA A-site were synthesized in house and precipitated twice from 1 M ammonium acetate following deprotection with ammonia (pH 8.5). The mass-tagged constructs contained an 18-atom mass tag (C12H2509) attached to the 5′-terminus of the RNA oligomer through a phosphodiester linkage.
# All mass spectrometry experiments were performed using an Apex II 70e electrospray ionization Fourier transform ion cyclotron resonance mass spectrometer (Bruker Daltonics, Billerica) employing an actively shielded 7 tesla superconducting magnet. […]
# Mass spectrometry experiments were performed in order to detect complex formation between a library containing five aminoglycosides (Sisomicin (Sis), Tobramycin (Tob), Bekanomycin (Bek), Paromomycin (PM), and Livodomycin (LV)) and two RNA targets simultaneously. Signals from the (M-5H+)^5− charge states of free 16S and 18S RNAs are detected at m/z 1801.515 and 1868.338, respectively. […]
# [4] = general statement; cited from earlier work
# [5] = general statement; cited from earlier work; remark: listed apart in the source
structure (smiles),measurement,setting,value
CNc1ccc(NCCO)c2c1C(=O)c1ccccc1C2=O [ACD 00001199],IC50,[1],50 µM
same,inhibition of translation of the luciferase mRNA,luciferase mRNA,some inhibition of translation at very high concentrations
same,concentration at which binding to TAR RNA disrupts the interaction with tat peptide,[2],1 µM
same,IC50 values,"[2]; in words, assay not stated, TAR ligands",low
"O=C(NO)[C@@H](Cc1ccc2ccccc2c1)NS(=O)(=O)c1ccc2ccccc2c1 [Compound 5-n-ii, (2R)-3-(2-naphthyl)-2-((2-naphthylsulfonyl)Amino)Propanehydroxamic Acid]",MIC,E. coli,0.7 to 1.5 µM
"O=C(NO)[C@@H](Cc1ccc2ccccc2c1)NS(=O)(=O)c1ccc(Br)cc1 [Compound 5-n-vi, (2R)-2-(((4-bromophenyl)Sulfonyl)Amino)-3-(2-naphthyl)Propanehydroxamic Acid]",MIC,E. coli,3 to 6 µM
"NC[C@H]1O[C@H](O[C@H]2[C@H](O)[C@@H](O[C@H]3O[C@H](CO)[C@@H](O)[C@H](N)[C@H]3O)[C@H](N)C[C@@H]2N)[C@H](N)[C@@H](O)[C@@H]1O [bekamycin, bekanamycin]",complexes detected with the 16S A site 27mer RNA,[3],Weaker complexes
NC[C@@H]1O[C@H](O[C@H]2[C@@H](O)[C@H](O[C@@H]3[C@@H](O)[C@H](N)C[C@H](N)[C@H]3O[C@H]3O[C@H](CO)[C@@H](O)C[C@H]3N)O[C@@H]2CO)[C@H](N)[C@@H](O)[C@@H]1O[C@H]1O[C@H](CO)[C@@H](O)[C@H](O)[C@@H]1O [lividomycin],complexes with the 18S A site model,18S A site model,absence
same,Kd,"[3]; 16S A site 27mer, ESI-MS titration, read-out: KD measured by mass spectrometry",28 nM
same,complexes detected with the 16S A site 27mer RNA,[3],High affinity complexes
"CN[C@@H]1[C@@H](O)[C@@H](O[C@@H]2[C@@H](O)[C@H](O[C@H]3OC(CN)=CC[C@H]3N)[C@@H](N)C[C@H]2N)OC[C@]1(C)O [sisomycin, sisomicin]",complexes detected with the 16S A site 27mer RNA,[3],Weaker complexes
C=C(NC(=O)C(=C)NC(=O)c1csc(C2=N[C@@H]3c4csc(n4)[C@H]4NC(=O)c5csc(n5)[C@H]([C@](C)(O)[C@@H](C)O)NC(=O)[C@H]5CSC(=N5)/C(=C/C)NC(=O)[C@H]([C@@H](C)O)NC(=O)c5csc(n5)[C@]3(CC2)NC(=O)[C@H](C)NC(=O)C(=C)NC(=O)[C@H](C)NC(=O)[C@H]([C@@H](C)CC)N[C@@H]2C=Cc3c([C@H](C)O)cc(nc3[C@H]2O)C(=O)O[C@@H]4C)n1)C(N)=O [thiostrepton],solubility,[4],very poor
same,toxicity,[5],relatively high
NC[C@H]1O[C@H](O[C@H]2[C@H](O)[C@@H](O[C@H]3O[C@H](CO)[C@@H](O)[C@H](N)[C@H]3O)[C@H](N)C[C@@H]2N)[C@H](N)C[C@@H]1O [tobramycin],complexes detected with the 16S A site 27mer RNA,[3],Weaker complexes
